Measured values published in patent US20140051918A1, “LAPAROSCOPIC GASTRIC BAND WITH ACTIVE AGENTS” (Allergan, Inc., priority 2009, published 2014).
Ends that are not written are not given here.

Assay: Patient examples: laparoscopic gastric band releasing an active agent, with weight loss, appetite and blood sugar control reported
Type: in vivo, human
Settings: 322 pounds; for weight lost by the patient: 5'11", within 12 months; for weight lost by the patient / appetite as reported by the patient: gastric band containing the agent, released to a goal plasma concentration over 3-24 months
Description: A patient, having a body weight of 322 pounds and a height of 5′11″, complains to their physician that they have tried unsuccessfully to lose weight over the past 15 years and is concerned about the effect their excess weight may have on their health. […] A reservoir containing glucagon like peptide 1 (GLP-1), according to any of the embodiments of this application may also be utilized.
A patient, having a body weight of 322 pounds and a height of 5′11″, complains to their physician that they have tried unsuccessfully to lose weight over the past 15 years and is concerned about the effect their excess weight may have on their health. […] A reservoir containing oxyntomodulin (OXM), according to any of the embodiments of this application may also be utilized. An injection, liquid, pill, spray, inhalant, patch, or oral substance such as a gum containing oxyntomodulin (OXM) may also be used.
A patient, having a body weight of 322 pounds and a height of 5′11″, complains to their physician that they have tried unsuccessfully to lose weight over the past 15 years and is concerned about the effect their excess weight may have on their health.
A patient, having a body weight of 322 pounds and a height of 5′11″, complains to their physician that they have tried unsuccessfully to lose weight over the past 15 years and is concerned about the effect their excess weight may have on their health. […] A reservoir containing Pancreatic Peptide (PP), according to any of the embodiments of this application may also be utilized. An injection, liquid, pill, spray, inhalant, patch, or oral substance such as a gum containing Pancreatic Peptide (PP) may also be used.
A patient, having a body weight of 322 pounds and a height of 5′11″, complains to their physician that they have tried unsuccessfully to lose weight over the past 15 years and is concerned about the effect their excess weight may have on their health. […] A reservoir containing Insulin, according to any of the embodiments of this application may also be utilized. An injection, liquid, pill, spray, inhalant, patch, or oral substance such as a gum containing Insulin may also be used.
A patient, having a body weight of 322 pounds and a height of 5′11″, complains to their physician that they have tried unsuccessfully to lose weight over the past 15 years and is concerned about the effect their excess weight may have on their health. […] A reservoir containing Leptin, according to any of the embodiments of this application may also be utilized. An injection, liquid, pill, spray, inhalant, patch, or oral substance such as a gum containing Leptin may also be used. […] In the case of a female patient the goal plasma concentrations would be [10-20 ng/mL]p.
A patient, having a body weight of 322 pounds and a height of 5′11″, complains to their physician that they have tried unsuccessfully to lose weight over the past 15 years and is concerned about the effect their excess weight may have on their health. […] A reservoir containing Amylin, according to any of the embodiments of this application may also be utilized. An injection, liquid, pill, spray, inhalant, patch, or oral substance such as a gum containing Amylin may also be used.
A patient, having a body weight of 322 pounds and a height of 5′11″, complains to their physician that they have tried unsuccessfully to lose weight over the past 15 years and is concerned about the effect their excess weight may have on their health. […] A reservoir containing Cholecystokinin (CCK), according to any of the embodiments of this application may also be utilized. An injection, liquid, pill, spray, inhalant, patch, or oral substance such as a gum containing Cholecystokinin (CCK) may also be used.

Molecule: glucagon like peptide 1 (HAEGTFTSDVSSYLEGQAAKEFIAWLVKGR; ends and bridges not checked; UniProt P01275 98-127, looked up) [GLP-1, satiety inducing peptide hormone]
- weight lost by the patient: 58 pounds
- appetite as reported by the patient: marked suppression of appetite

Molecule: Pancreatic Peptide (APLEPVYPGDNATPEQMAQYAADLRRYINMLTRPRY; ends and bridges not checked; UniProt P01298 30-65, looked up) [PP, satiety inducing peptide hormone]
- weight lost by the patient: 58 pounds
- appetite as reported by the patient: marked suppression of appetite

Molecule: Insulin
- blood sugar control as reported by the patient (gastric band containing Insulin, released to plasma concentrations of 5-30 μU/mL over 3-24 months): euglycemic effects, or better control by their body of blood sugars

Molecule: Cocaine-Amphetamine Regulated Transcript [CART]
- weight lost by the patient: 58 pounds
- appetite as reported by the patient: marked suppression of appetite

Molecule: oxyntomodulin [OXM]
- weight lost by the patient: 58 pounds
- appetite as reported by the patient: marked suppression of appetite

Molecule: Amylin (KCNTATCATQRLANFLVHSSNNFGAILSSTNVGSNTY; not fully specified (C-terminus, bridges); cysteine pairing not given here; UniProt P10997 34-70, looked up) [satiety inducing peptide hormone]
- weight lost by the patient: 58 pounds
- appetite as reported by the patient: marked suppression of appetite

Molecule: Leptin
- weight lost by the patient: 58 pounds
- appetite as reported by the patient: marked suppression of appetite

Molecule: PYY: satiety inducing peptide hormone [Peptide Y-Y]
- weight lost by the patient: 58 pounds
- appetite as reported by the patient: marked suppression of appetite

B1: Cholecystokinin (peptide, UniProt P06307 21-115, looked up)
Cholecystokinin: QPVPPADPAGSGLQRAEEAPRRQLRVSQRTDGESRAHLGALLARYIQQARKAPSGRMSIVKNLQNLDPSHRISDRDYMGWMDFGRRSAEEYEYPS
modifications: Cholecystokinin
notes: hormone that suppresses appetite when administered with or without gastric distension
- weight lost by the patient: 58 pounds
- appetite as reported by the patient: marked suppression of appetite

B2: Ciliary neuro-trophic factor (protein, UniProt P26441 1-200, looked up)
Ciliary neurotrophic factor: MAFTEHSPLTPHRRDLCSRSIWLARKIRSDLTALTESYVKHQGLNKNINLDSADGMPVASTDQWSELTEAERLQENLQAYRTFHVLLARLLEDQQVHFTPTEGDFHQAIHTLLLQVAAFAYQIEELMILLEYKIPRNEADGMPINVGDGGLFEKKLWGLKVLQELSQWTVRSIHDLRFISSHQTGIPARGSHYIANNKKM
- weight lost by the patient: 58 pounds
- appetite as reported by the patient: marked suppression of appetite
